The values that follow come from patent US5589467A, “2,5',N6-trisubstituted adenosine derivatives” (Novo Nordisk A/S, priority 1993, dated 1996).

Molecules are shown by their SMILES. Like-named read-outs stand apart in the source and are kept apart here.

One assay has as its system A1 receptor. The note with it: literature, qualitative; cited from earlier work.
A short description of assay [1]: DMCM-induced seizures in vivo. Conditions: read-out: DMCM-ind. seizures (ED50, mg/kg). An excerpt: (§1) The methods both for the above in vitro examination of the compounds and the method used for DMCM-induced seizures in vivo are summarized in the European Journal of Pharmacology, 1993, 224, 221-228.
A further assay deals with T1, adenosine A2 receptor (Rattus norvegicus, UniProt P30543).
T1 construct: from tissue
T1 sequence (P30543 whole entry): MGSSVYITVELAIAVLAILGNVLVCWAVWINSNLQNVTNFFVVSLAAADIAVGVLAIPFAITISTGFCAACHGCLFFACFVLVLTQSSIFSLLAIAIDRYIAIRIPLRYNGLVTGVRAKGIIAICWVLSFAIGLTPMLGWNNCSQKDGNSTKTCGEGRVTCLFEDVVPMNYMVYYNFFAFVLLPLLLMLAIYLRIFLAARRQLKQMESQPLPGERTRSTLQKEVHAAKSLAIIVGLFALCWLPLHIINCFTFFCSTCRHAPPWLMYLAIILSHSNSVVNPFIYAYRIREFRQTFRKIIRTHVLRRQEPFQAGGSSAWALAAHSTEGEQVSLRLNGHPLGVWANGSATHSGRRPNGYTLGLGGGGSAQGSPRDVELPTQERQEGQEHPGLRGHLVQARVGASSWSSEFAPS
Put plainly: in vitro binding to adenosine A2 receptor ([3H]-CGS 21680).
Description: (§2) Evaluation of in vitro binding to adenosine A1 and A2 receptors.
as §1

A further assay has as its target T2, adenosine A1 receptor (Rattus norvegicus, UniProt P25099).
T2 construct: from tissue
T2 sequence (P25099 1-326): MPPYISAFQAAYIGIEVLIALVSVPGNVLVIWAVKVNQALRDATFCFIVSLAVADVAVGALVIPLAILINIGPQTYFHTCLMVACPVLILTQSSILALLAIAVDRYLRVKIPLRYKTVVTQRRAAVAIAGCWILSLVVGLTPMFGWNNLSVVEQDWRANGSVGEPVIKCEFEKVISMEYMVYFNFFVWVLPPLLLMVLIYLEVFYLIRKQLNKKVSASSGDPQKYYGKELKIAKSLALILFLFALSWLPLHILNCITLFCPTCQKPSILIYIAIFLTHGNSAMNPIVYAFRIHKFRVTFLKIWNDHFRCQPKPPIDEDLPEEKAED
The assay can be described thus: in vitro binding to adenosine A1 receptor ([3H]-R-PIA). The note with it: for Ki: radioligand [3H]-R-PIA; for Ratio A2/A1: ratio of A2 to A1 receptor binding Ki.
Description: as §2, §1

Where [2] appears, read: ED50, DMCM-induced seizures in vivo.
[3] abbreviates: radioligand [3H]-CGS 21680, read-out: A2 Receptor Binding (Ki).

Consider `OC[C@H]1O[C@@H](n2cnc3c(NC4CCCC4)nc(Cl)nc32)[C@H](O)[C@@H]1O` [CCPA, 2-chloro-N-cyclopentyladenosine], for which, in the assay on A1 receptor, the “selectivity for the A1 receptor over the A2 receptor (in words)” value is “most selective for the A1 receptor over the A2 receptor”.
By Ki is commonly meant a dissociation constant, usually derived from enzyme kinetics or from competition with a known ligand. Regarding `OC[C@H]1O[C@@H](n2cnc3c(NC4CCCC4)ncnc32)[C@H](O)[C@@H]1O` [CPA, N-(cyclopentyl)adenosine, reference compound], in assay [1], the ED50 turned out to be 0.2 mg/kg. The same compound gave a Ki on adenosine A2 receptor of 192 nM.
`O[C@@H]1[C@H](O)[C@@H](CCl)O[C@H]1n1cnc2c(NN3CCCCC3)nc(Cl)nc21` [Example 1, 2,5'-Dichloro-5'-deoxy-N-(1-piperidinyl)adenosine]: in assay [1] (setting [2]), the ED50 stood at 0.4 mg/kg. The Ki on adenosine A1 receptor came to 6.4 nM; at adenosine A2 receptor (setting [3]) it was 2740 nM. The “Ratio A2/A1” value at adenosine A1 receptor worked out at 428.
Turning to `CN(C)Nc1nc(Cl)nc2c1ncn2[C@@H]1O[C@H](CCl)[C@@H](O)[C@H]1O` [Example 11, 2,5'-Dichloro-5'-deoxy-N-(dimethylamino)adenosine], the ED50 in assay [1] (setting [2]) is 4.7 mg/kg. Moreover, the Ki on adenosine A1 receptor came to 11 nM; at adenosine A2 receptor (setting [3]) it was 6600 nM. In addition, the “Ratio A2/A1” value on adenosine A1 receptor is listed as 600.
Taken in the same sequence, the figures for `CONc1nc(Cl)nc2c1ncn2[C@@H]1O[C@H](CCl)[C@@H](O)[C@H]1O` [Example 12, 2,5'-Dichloro-5'-deoxy-N-methoxyadenosine] were 6.1 mg/kg, 74 nM, 4660 nM and 63.
`O[C@@H]1[C@H](O)[C@@H](CF)O[C@H]1n1cnc2c(NN3CCCCC3)nc(Cl)nc21` [Example 18, 2-Chloro-5'-deoxy-5'-fluoro-N-(1-piperidinyl)adenosine]: in assay [1] (setting [2]), the ED50 came out at 1 mg/kg. Further, the Ki on adenosine A1 receptor was 5.3 nM; at adenosine A2 receptor (setting [3]) it was 2420 nM. In addition, the “Ratio A2/A1” value on adenosine A1 receptor stood at 457.
Turning to `C[C@H](Cc1ccccc1)Nc1ncnc2c1ncn2[C@@H]1O[C@H](CO)[C@@H](O)[C@H]1O` [R-PIA, (R)-N-(1-phenyl-2-propyl)adenosine, reference compound], the ED50 in assay [1] is 0.5 mg/kg.
